Assays:
PI3K-delta = target: T1, PI3K-delta (Homo sapiens, UniProt O00329); experiment: HTRF PI3K biochemical assay, delta isoform; details: form screened (neutral or TFA salt) given, read-out: PI3Kdelta IC50
T1 construct: purchased Upstate; Millipore 14-604

PI3K-alpha = target: T2, PI3K-alpha (Homo sapiens, UniProt P42336); experiment: HTRF PI3K biochemical assay, alpha isoform; details: ratio PI3K-alpha IC50 value / PI3K-delta IC50 value
T2 construct: purchased Upstate; Millipore 14-602
T2 sequence (P42336 whole entry, canonical isoform): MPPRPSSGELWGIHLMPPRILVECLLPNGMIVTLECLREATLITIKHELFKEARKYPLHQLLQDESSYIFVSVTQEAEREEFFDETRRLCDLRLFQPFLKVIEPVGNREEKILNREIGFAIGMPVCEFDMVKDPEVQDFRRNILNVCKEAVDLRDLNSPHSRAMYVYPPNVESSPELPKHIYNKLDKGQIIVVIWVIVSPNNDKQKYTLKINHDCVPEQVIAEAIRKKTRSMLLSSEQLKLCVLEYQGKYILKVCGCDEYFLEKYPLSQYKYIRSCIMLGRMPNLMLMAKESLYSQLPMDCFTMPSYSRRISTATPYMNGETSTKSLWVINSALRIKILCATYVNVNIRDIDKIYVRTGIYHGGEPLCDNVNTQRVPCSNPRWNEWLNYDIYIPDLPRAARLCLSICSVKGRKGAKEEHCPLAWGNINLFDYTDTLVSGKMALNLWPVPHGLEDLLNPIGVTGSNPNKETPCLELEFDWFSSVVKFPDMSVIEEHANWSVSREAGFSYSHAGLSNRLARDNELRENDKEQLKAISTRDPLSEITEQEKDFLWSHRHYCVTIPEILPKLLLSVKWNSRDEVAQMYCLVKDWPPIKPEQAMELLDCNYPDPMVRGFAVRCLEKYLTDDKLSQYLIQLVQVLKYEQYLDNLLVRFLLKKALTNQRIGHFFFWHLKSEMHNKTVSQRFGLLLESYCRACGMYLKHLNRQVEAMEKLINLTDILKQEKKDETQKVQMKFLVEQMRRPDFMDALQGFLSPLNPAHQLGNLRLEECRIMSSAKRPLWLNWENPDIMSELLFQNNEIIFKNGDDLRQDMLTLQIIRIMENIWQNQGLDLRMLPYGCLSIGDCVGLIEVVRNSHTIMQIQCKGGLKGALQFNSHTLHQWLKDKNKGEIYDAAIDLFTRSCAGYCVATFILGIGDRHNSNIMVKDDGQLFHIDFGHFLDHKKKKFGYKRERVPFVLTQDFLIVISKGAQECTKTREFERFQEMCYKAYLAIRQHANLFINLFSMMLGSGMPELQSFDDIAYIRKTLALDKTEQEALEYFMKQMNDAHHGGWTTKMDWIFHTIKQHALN
T2 sequence (P27986 whole entry partner, canonical isoform): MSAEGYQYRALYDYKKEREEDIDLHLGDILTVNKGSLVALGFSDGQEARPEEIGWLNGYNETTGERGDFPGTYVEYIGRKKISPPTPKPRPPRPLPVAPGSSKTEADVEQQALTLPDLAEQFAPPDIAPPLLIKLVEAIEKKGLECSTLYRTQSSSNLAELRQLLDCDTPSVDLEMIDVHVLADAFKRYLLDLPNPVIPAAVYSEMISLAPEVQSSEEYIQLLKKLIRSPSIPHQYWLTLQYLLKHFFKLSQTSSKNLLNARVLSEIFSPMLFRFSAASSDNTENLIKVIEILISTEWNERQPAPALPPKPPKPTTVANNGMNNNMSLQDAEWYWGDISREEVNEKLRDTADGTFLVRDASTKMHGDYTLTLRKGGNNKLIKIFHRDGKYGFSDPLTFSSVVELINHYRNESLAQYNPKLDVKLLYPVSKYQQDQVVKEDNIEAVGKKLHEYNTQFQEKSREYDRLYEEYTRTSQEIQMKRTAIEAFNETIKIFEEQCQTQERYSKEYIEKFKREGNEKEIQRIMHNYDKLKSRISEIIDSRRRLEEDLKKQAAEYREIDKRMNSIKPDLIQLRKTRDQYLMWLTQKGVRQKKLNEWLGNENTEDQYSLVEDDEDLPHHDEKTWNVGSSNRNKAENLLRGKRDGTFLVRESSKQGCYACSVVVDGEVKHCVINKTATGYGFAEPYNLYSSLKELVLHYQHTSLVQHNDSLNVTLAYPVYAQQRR
Description: The PI3-Kinase biochemical assays were developed to measure the intrinsic potency and compound dependent inhibition of the alpha, beta, delta, and gamma PI3K isoform enzymes. This assay was developed and further optimized from a kit produced by Upstate (Millipore catalog #33-047) and has been configured for HTS and SAR screening. Briefly, this procedure exploits the exquisite specificity and high affinity binding of enzyme reaction substrate phosphatidyl(3,4,5)triphosphate (PIP3) to the GRP1 pleckstrin homology (PH) domain to generate the signal. In the absence of PIP3, an HTRF (Homogeneous Time-Resolved Fluorescence energy transfer) complex is formed consisting of europium (Eu)-labeled anti-GST, GSTtagged GRP1-PH domain, biotin-PIP3 and streptavidin conjugated APC. The native PIP3 produced by PI3-Kinase activity disrupts in a competitive manner the biotin-PIP3 from the PH domain, resulting in the loss of energy transfer (HTRF complex) and a decrease in the signal. The format of this assay is the same for all 4 isoforms of PI3K; the differences lie in the concentration of enzyme used to achieve robust assay window. The alpha, beta, and delta assays are run at 0.5, 1, and 0.3 nM enzymes and the gamma assay is run at 5 nM enzyme. The ATP concentration is 100 uM in the alpha, beta, and delta assays and 50 uM ATP in the gamma assay. All reactions are run at 5 uM PIP2.
Compounds are serially diluted (3-fold in 100% DMSO) across a 384-well polypropylene source plated from column 3 to column 12 and column 13 to column 22, to yield 10 concentration dose response for each test compound. Columns 1, 2, 23 and 24 contain either only DMSO or pharmacological known control inhibitor.
The PI3-Kinase biochemical assay was optimized using the HTRF kit provided by Upstate (Millipore). The assay kit contains six reagents: 1) 4× Reaction Buffer; 2) native PIP2 (substrate); 3) Stop (EDTA); 4) Detection Mix A (Streptavidin-APC); 5) Detection Mix B (Eu-labeled Anti-GST plus GST-tagged PH-domain); 6) Detection Mix C.
PI3Kinase Reaction Buffer is prepared by dilution the stock 1:4 with de-ionized water. […] Enzyme addition and compound pre-incubation are initiated by the addition of 1.25 ul of PI3K (at twice its final concentration) in the 1× reaction buffer to all wells using a BioRaptor. Plates are incubated at room temperature for 15 minutes. Reactions are initiated by addition of 1.25 ul of 2× substrate solution (PIP2 and ATP in 1× reaction buffer) using BioRaptor. Plates are incubated in humidified chamber at room temperature for one hour. Reactions are quenched by addition of 0.625 uL of stop solution to all wells using the BioRaptor. The quenched reactions are then processed to detect product formation by adding 0.625 uL of Detection Solution to all wells using the BioRaptor (Detection mix C, Detection Mix A, and Detection Mix B combined together in an 18:1:1 ratio prepared 2 hours prior to use).
The loss of the HTRF signal is due to the displacement of biotinylated-PIP3 from the PH domain by the PI3K-dependent conversion of PIP2 to PIP3. This loss of signal is nonlinear with respect to both increasing product and time. This non-linear detection will impact accuracy of IC50 calculations; therefore, there is a need for a correction factor to obtain more accurate IC50 values. This correction is derived from a PIP3 standard curve run in a separate assay plate. All data were calculated using the ratio of acceptor (APC) to donor (Europium) fluorescence in each well of the assay plate. […] An IC50 was then calculated fitting the % inhibition data to the equation: % inhibition=min+(Max−min)/1+([inhibitor]/IC50)^n) where min is the % inhibition with inhibitor, max is the signal in DMSO control, and n is the Hill slope.
The determination of relative selectivity for a given compound is defined as the relative ratio of the (PI3K-alphalC50 value/PI3K-delta IC50 value).

T1 sequence (O00329 whole entry, canonical isoform): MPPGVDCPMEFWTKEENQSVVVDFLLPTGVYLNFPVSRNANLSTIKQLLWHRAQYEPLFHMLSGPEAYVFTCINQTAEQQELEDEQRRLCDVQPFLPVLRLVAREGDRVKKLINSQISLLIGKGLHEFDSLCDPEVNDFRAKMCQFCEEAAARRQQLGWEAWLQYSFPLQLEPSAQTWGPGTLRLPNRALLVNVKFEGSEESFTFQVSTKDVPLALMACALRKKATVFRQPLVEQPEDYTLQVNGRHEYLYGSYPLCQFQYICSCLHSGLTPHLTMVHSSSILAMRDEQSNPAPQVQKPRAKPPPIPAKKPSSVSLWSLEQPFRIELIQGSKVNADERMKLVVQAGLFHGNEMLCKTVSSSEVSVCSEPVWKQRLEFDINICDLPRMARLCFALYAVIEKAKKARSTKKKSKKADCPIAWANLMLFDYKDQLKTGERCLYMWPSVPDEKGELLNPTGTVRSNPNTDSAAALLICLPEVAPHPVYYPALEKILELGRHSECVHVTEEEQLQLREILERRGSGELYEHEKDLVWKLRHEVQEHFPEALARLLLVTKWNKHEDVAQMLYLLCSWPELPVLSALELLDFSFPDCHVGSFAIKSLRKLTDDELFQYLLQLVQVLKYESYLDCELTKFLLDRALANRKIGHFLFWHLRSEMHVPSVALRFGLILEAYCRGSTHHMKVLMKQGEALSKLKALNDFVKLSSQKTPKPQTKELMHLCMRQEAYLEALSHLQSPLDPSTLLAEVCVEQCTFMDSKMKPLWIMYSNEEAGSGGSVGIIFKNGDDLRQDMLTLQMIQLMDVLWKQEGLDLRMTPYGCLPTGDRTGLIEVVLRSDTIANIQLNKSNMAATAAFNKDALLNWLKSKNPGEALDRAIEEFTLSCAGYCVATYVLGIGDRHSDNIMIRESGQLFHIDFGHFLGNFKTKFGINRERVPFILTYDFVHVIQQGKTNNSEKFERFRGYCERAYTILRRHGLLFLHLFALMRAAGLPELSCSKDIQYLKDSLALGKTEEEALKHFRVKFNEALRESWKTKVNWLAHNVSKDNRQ
T1 sequence (P27986 whole entry partner, canonical isoform): as the sequence (P27986 whole entry partner, canonical isoform) above

| SMILES | IC50 (PI3K-delta) [nM] | Selectivity versus PI3Kalpha (PI3K-alpha) |
| --- | --- | --- |
| CCn1c(-c2cnc(C)nc2)nc2c(N[C@H]3CCN(C(=O)C4(COC)CC4)C3)ncnc21 [Compound 2-61, 9-ethyl-N-[(3S)-1-{[1-(methoxymethyl)cyclopropyl]carbonyl}pyrrolidin-3-yl]-8-(2-methylpyrimidin-5-yl)-9H-purin-6-amine] | 23 | >10 |
| CCn1c(-c2cnc(C)nc2)nc2c(N[C@H]3CCN(C(=O)C4(C#N)CCCC4)C3)ncnc21 [Compound 2-62, 1-{[(3S)-3-{[9-ethyl-8-(2-methylpyrimidin-5-yl)-9H-purin-6-yl]amino}pyrrolidin-1-yl]carbonyl}cyclopentanecarbo-nitrile] | 6 | >10 |
| CCn1c(-c2cnc(C)nc2)nc2c(N[C@H]3CCN(C(=O)C4(C#N)CC4)C3)ncnc21 [Compound 2-65, 1-{[(3S)-3-{[9-ethyl-8-(2-methylpyrimidin-5-yl)-9H-purin-6-yl]amino}pyrrolidin-1-yl]carbonyl}cyclopropanecarbo-nitrile] | 11 | >10 |
| CCn1c(-c2cnc(C)nc2)nc2c(N[C@H]3CCN(C(=O)C4(O)CC4)C3)ncnc21 [Compound 2-66, 1-{[(3S)-3-{[9-ethyl-8-(2-methylpyrimidin-5-yl)-9H-purin-6-yl]amino}pyrrolidin-1-yl]carbonyl}cyclopropanol] | 10 | >10 |
| CCn1c(-c2cnc(C)nc2)nc2c(N[C@H]3CCN(C(=O)c4cncn4C)C3)ncnc21 [Compound 2-69, [(3S)-3-{[9-ethyl-8-(2-methylpyrimidin-5-yl)-9H-purin-6-yl]amino}pyrrolidin-1-yl](1-methyl-1H-imidazol-5-yl)methanone] | 3.8 | >10 |
| CCn1c(-c2cnc(C)nc2)nc2c(N[C@H]3CCN(C(=O)c4cc(C)on4)C3)ncnc21 [Compound 2-70, 9-ethyl-N-{(3S)-1-[(5-methylisoxazol-3-yl)carbonyl]pyrrolidin-3-yl}-8-(2-methylpyrimidin-5-yl)-9H-purin-6-amine] | 7.4 | >10 |
| CCn1c(-c2cnc(C)nc2)nc2c(N[C@H]3CCN(C(=O)c4nnsc4C)C3)ncnc21 [Compound 2-71, 9-ethyl-8-(2-methylpyrimidin-5-yl)-N-{(3S)-1-[(5-methyl-1,2,3-thiadiazol-4-yl)carbonyl]pyrrolidin-3-yl}-9H-purin-6-amine] | 4.2 | >10 |
| CCn1c(-c2cnc(C)nc2)nc2c(N[C@H]3CCN(C(=O)c4cocn4)C3)ncnc21 [Compound 2-72, 9-ethyl-8-(2-methylpyrimidin-5-yl)-N-[(3S)-1-(1,3-oxazol-4-ylcarbonyl)pyrrolidin-3-yl]-9H-purin-6-amine] | 2.8 | >10 |
| CCn1c(-c2cnc(C)nc2)nc2c(N[C@H]3CCN(C(=O)c4cnn(C)c4)C3)ncnc21 [Compound 2-73, 9-ethyl-N-{(3S)-1-[(1-methyl-1H-pyrazol-4-yl)carbonyl]pyrrolidin-3-yl}-8-(2-methylpyrimidin-5-yl)-9H-purin-6-amine] | 4.2 | >10 |
| CCn1c(-c2cnc(C)nc2)nc2c(N[C@H]3CCN(C(=O)c4ocnc4C)C3)ncnc21 [Compound 2-74, 9-ethyl-N-{(3S)-1-[(4-methyl-1,3-oxazol-5-yl)carbonyl]pyrrolidin-3-yl}-8-(2-methylpyrimidin-5-yl)-9H-purin-6-amine] | 3.1 | >10 |
| CCn1c(-c2cnc(C)nc2)nc2c(N[C@H]3CCN(C(=O)c4cn(C)nn4)C3)ncnc21 [Compound 2-75, 9-ethyl-8-(2-methylpyrimidin-5-yl)-N-{(3S)-1-[(1-methyl-1H-1,2,3-triazol-4-yl)carbonyl]pyrrolidin-3-yl}-9H-purin-6-amine] | 4.7 | >10 |
| CCn1c(-c2cnc(C)nc2)nc2c(N[C@H]3CCN(C(=O)C45CC(C4)C5)C3)ncnc21 [Compound 2-77, N-[(3S)-1-(bicyclo[1.1.1]pent-1-ylcarbonyl)pyrrolidin-3-yl]-9-ethyl-8-(2-methylpyrimidin-5-yl)-9H-purin-6-amine] | 2.1 | >10 |
| CCn1c(-c2cnc(C)nc2)nc2c(N[C@H]3CCN(C(=O)C4CCNCC4)C3)ncnc21 [Compound 2-78, 9-ethyl-8-(2-methylpyrimidin-5-yl)-N-[(3S)-1-(piperidin-4-ylcarbonyl)pyrrolidin-3-yl]-9H-purin-6-amine] | 4.6 | >10 |
| CCn1c(-c2cnc(C)nc2)nc2c(N[C@H]3CCN(C(=O)C4CN(C(C)C)C4)C3)ncnc21 [Compound 2-79, 9-ethyl-N-[(3S)-1-{[1-(1-methylethyl)azetidin-3-yl]carbonyl}pyrrolidin-3-yl]-8-(2-methylpyrimidin-5-yl)-9H-purin-6-amine] | 17 | >10 |
| CCn1c(-c2cnc(C)nc2)nc2c(N[C@H]3CCN(C(=O)C(C)(C)N)C3)ncnc21 [Compound 2-80, N-[(3S)-1-(2-amino-2-methylpropanoyl)pyrrolidin-3-yl]-9-ethyl-8-(2-methylpyrimidin-5-yl)-9H-purin-6-amine] | 61 | >10 |
| CCn1c(-c2cnc(C)nc2)nc2c(N[C@H]3CCN(C(=O)C4(NC)CC4)C3)ncnc21 [Compound 2-82, 9-ethyl-N-[(3S)-1-{[1-(methylamino)cyclopropyl]car-bonyl}pyrrolidin-3-yl]-8-(2-methylpyrimidin-5-yl)-9H-purin-6-amine] | 21 | >10 |
| CCn1c(-c2cnc(C)nc2)nc2c(N[C@H]3CCN(C(=O)C4(N)CC4)C3)ncnc21 [Compound 2-84, N-{(3S)-1-[(1-aminocyclopropyl)carbonyl]pyrrolidin-3-yl}-9-ethyl-8-(2-methylpyrimidin-5-yl)-9H-purin-6-amine] | 20 | >10 |
| CCn1c(-c2cnc(C)nc2)nc2c(N[C@H]3CCN(C(=O)CCNC)C3)ncnc21 [Compound 2-86, 9-ethyl-N-{(3S)-1-[3-(methylamino)propanoyl]pyrroli-din-3-yl}-8-(2-methylpyrimidin-5-yl)-9H-purin-6-amine] | 46 | >10 |
| CCn1c(-c2cnc(C)nc2)nc2c(N[C@H]3CCN(C(=O)[C@@H]4C[C@@H]4C)C3)ncnc21 [Compound 2-90, 9-ethyl-N-[(3S)-1-{[(1R,2S)-2-methylcyclopropyl]carbonyl}pyrrolidin-3-yl]-8(2-methylpyrimidin-5-yl)-9H-purin-6-amine] | 1.3 | >10 |
| CCn1c(-c2cnc(C)nc2)nc2c(N[C@H]3CCN(C(=O)[C@H]4C[C@H]4C)C3)ncnc21 [Compound 2-91, 9-ethyl-N-[(3S)-1-{[(1S,2R)-2-methylcyclopropyl]carbonyl}pyrrolidin-3-yl]-8-(2-methylpyrimidin-5-yl)-9H-purin-6-amine] | 12 | >10 |
| CCn1c(-c2cnc(C)nc2)nc2c(N[C@H]3CCN(C(=O)[C@@H]4C[C@H]4C)C3)ncnc21 [Compound 2-92, 9-ethyl-N-[(3S)-1-{[(1R,2R)-2-methylcyclopropyl]carbonyl}pyrrolidin-3-yl]-8-(2-methylpyrimidin-5-yl)-9H-purin-6-amine] | < 1 | >10 |
| CCn1c(-c2cnc(C)nc2)nc2c(N[C@H]3CCN(C(=O)[C@H]4C[C@@H]4C)C3)ncnc21 [Compound 2-93, 9-ethyl-N-[(3S)-1-{[(1S,2S)-2-methylcyclopropyl]carbonyl}pyrrolidin-3-yl]-8-(2-methylpyrimidin-5-yl)-9H-purin-6-amine] | 11.2 | >10 |
| CCn1c(-c2cnc(C)nc2)nc2c(N[C@H]3CCN(C(=O)C4CC4)[C@@H]3C)ncnc21 [Compound 2-94, N-[(2R,3S)-1-(cyclopropylcarbonyl)-2-methylpyrrolidin-3-yl]-9-ethyl-8-(2-methylpyrimidin-5-yl)-9H-purin-6-amine] | < 1 | >10 |
| CCn1c(-c2cnc(C)nc2)nc2c(N[C@H]3CCN(C(=O)[C@H]4CC[C@@H](O)CC4)C3)ncnc21 [Compound 2-98, cis-4-{[(3S)-3-{[9-ethyl-8-(2-methylpyrimidin-5-yl)-9H-purin-6-yl]amino}pyrrolidin-1-yl]carbonyl}cyclohexanol] | 2.8 | >10 |
| CCn1c(-c2cnc(C)nc2)nc2c(N[C@H]3CCN(C(=O)[C@H]4CC[C@H](O)CC4)C3)ncnc21 [Compound 2-99, trans-4-{[(3S)-3-{[9-ethyl-8-(2-methylpyrimidin-5-yl)-9H-purin-6-yl]amino}pyrrolidin-1-yl]carbonyl}cyclohexanol] | 2.8 | >10 |
| CCn1c(-c2cnc(C)nc2)nc2c(N(C)[C@H]3CCN(C(=O)[C@H]4CC[C@@H](O)CC4)C3)ncnc21 [Compound 2-100, cis-4-{[(3S)-3-{[9-ethyl-8-(2-methylpyrimidin-5-yl)-9H-purin-6-yl](methyl)amino}pyrrolidin-1-yl]carbonyl}cyclohexanol] | 6.3 | >10 |
| CCn1c(-c2ccc(C(F)(F)F)nc2)nc2c(N[C@H]3CCN(C(=O)[C@H]4C[C@@H](OC)C4)C3)ncnc21 [Compound 2-105, 9-ethyl-N-{(3S)-1-[(cis-3-methoxycyclobutyl)carbonyl]pyrrolidin-3-yl}-8-[6-(trifluoromethyl)pyridin-3-yl]-9H-purin-6-amine] | < 1 | >10 |
| CCn1c(-c2ccc(C(F)(F)F)nc2)nc2c(N[C@H]3CCN(C(=O)[C@H]4C[C@H](OC)C4)C3)ncnc21 [Compound 2-106, 9-ethyl-N-{(3S)-1-[(trans-3-methoxycyclobutyl)carbonyl]pyrrolidin-3-yl}-8-[6-(trifluoromethyl)pyridin-3-yl]-9H-purin-6-amine] | 1.2 | >10 |

From US9938281B2 (Merck Sharp & Dohme Corp., priority 2012, dated 2018)
